Holding throughout (test): KINOMEscan competition binding
One experiment deals with GSK3B (Homo sapiens, UniProt P49841). The conditions noted are these: read-out: %Inh GSK3B.
The target of the next experiment is AKT3 (Homo sapiens, UniProt Q9Y243). The settings on record: read-out: %Inh AKT3.
A further experiment concerns the target T1, MAP3K2 (Homo sapiens, UniProt Q9Y2U5).
T1 sequence (Q9Y2U5 1-619): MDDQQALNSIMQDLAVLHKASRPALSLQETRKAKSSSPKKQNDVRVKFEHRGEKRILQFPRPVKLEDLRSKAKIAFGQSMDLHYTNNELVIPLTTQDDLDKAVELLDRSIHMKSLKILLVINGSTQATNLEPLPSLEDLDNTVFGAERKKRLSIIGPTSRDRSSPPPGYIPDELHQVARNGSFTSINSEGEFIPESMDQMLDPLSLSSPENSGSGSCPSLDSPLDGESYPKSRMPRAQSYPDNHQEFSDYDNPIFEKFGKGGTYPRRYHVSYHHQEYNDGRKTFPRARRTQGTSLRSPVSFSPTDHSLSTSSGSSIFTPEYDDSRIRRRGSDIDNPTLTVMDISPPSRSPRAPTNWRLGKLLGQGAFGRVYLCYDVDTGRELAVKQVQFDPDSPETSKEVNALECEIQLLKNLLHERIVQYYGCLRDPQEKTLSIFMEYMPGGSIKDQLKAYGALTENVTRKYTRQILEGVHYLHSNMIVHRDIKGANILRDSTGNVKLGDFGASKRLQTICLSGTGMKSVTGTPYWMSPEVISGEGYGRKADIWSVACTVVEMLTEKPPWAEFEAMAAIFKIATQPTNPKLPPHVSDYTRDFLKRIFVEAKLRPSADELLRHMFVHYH
The conditions noted are these: read-out: %Inh MAP3K2.

The target in another experiment is ERBB3 (Homo sapiens, UniProt P21860). The settings on record: read-out: %Inh ERBB3.
Chain of ERBB3 (P21860 20-1342): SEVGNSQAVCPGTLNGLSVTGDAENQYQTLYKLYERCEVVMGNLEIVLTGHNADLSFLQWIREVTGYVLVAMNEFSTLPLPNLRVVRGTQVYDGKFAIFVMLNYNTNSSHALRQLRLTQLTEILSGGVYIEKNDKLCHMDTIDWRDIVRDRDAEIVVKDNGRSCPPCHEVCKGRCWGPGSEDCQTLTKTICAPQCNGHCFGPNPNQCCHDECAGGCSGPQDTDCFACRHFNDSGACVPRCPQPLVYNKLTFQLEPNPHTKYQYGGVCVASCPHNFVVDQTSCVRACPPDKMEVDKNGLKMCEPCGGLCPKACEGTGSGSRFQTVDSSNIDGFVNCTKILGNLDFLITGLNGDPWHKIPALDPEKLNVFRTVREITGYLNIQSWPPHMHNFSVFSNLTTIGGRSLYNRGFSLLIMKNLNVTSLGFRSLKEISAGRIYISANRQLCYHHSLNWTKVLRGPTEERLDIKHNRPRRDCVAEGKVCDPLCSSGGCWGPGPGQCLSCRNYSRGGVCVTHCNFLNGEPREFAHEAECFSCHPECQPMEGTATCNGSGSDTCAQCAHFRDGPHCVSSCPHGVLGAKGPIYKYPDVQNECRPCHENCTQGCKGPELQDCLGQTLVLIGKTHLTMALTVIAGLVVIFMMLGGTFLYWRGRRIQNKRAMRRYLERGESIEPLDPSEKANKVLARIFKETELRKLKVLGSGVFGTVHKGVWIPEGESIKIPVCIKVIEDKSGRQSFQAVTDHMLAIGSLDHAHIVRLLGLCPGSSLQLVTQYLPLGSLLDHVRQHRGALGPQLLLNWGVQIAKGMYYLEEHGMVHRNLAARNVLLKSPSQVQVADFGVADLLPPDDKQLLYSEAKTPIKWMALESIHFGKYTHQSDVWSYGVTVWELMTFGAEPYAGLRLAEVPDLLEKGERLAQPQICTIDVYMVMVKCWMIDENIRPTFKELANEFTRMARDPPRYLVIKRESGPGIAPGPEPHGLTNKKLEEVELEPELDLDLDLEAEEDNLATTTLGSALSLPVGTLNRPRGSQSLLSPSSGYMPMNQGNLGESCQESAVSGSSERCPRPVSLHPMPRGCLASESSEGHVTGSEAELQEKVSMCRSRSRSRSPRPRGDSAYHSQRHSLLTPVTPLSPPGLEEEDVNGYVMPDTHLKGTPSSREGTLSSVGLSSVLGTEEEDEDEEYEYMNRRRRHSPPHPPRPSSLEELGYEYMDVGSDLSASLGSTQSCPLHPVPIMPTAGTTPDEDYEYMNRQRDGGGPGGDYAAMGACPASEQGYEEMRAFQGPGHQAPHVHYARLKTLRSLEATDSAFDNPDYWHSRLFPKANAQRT
For a further experiment, the target named is AKT1 (Homo sapiens, UniProt P31749). The settings on record: read-out: %Inh AKT1.
Chain of AKT1 (P31749 whole entry): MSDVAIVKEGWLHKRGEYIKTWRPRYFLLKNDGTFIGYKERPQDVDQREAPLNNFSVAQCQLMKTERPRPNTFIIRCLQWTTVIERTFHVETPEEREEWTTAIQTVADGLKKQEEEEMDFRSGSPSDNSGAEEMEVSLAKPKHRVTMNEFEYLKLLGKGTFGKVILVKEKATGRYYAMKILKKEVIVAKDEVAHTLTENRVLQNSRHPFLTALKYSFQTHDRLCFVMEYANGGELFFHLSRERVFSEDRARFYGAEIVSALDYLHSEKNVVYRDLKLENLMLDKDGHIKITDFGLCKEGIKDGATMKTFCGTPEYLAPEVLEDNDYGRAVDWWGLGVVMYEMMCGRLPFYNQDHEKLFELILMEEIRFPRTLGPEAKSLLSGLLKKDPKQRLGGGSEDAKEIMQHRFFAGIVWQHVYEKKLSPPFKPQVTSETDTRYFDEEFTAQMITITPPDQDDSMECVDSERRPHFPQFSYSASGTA
The target of a further experiment is DAPK3 (Homo sapiens, UniProt O43293). The settings on record: read-out: %Inh DAPK3.
Chain of DAPK3 (O43293 whole entry): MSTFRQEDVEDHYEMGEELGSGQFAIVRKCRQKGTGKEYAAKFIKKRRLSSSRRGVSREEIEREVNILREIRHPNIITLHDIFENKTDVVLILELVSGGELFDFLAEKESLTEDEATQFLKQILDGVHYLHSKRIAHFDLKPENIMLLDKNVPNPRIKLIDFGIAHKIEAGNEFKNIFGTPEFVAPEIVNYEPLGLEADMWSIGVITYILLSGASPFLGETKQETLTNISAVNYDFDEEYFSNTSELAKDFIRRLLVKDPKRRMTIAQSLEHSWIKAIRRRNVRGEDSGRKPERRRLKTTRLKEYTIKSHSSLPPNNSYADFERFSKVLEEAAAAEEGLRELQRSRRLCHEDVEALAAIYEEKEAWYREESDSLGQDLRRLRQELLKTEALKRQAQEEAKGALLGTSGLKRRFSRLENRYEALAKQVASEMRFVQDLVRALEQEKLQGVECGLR
A further experiment concerns the target CSNK1G2 (Homo sapiens, UniProt P78368). The conditions noted are these: read-out: %Inh CSNK1G2.
The target in the next experiment is IRAK1 (Homo sapiens, UniProt P51617). The conditions noted are these: read-out: %Inh IRAK1.
The target in another experiment is T2, ACVR1 (Homo sapiens, UniProt Q04771).
T2 sequence (Q04771 21-509): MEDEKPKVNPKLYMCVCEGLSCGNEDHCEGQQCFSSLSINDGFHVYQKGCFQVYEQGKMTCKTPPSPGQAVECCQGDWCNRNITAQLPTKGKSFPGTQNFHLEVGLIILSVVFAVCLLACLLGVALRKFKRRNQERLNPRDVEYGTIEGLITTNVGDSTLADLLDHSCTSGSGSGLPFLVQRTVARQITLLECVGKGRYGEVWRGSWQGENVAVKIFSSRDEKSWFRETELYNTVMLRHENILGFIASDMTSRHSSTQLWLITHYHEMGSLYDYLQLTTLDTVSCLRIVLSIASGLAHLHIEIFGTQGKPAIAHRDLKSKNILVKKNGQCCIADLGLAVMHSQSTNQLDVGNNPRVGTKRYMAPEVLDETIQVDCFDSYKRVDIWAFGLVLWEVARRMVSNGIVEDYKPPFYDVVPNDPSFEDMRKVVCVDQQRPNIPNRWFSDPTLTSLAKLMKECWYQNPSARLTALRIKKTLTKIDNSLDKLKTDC
The conditions noted are these: read-out: %Inh ACVR1.

For the next experiment, the target named is T3, CHEK1 (Homo sapiens, UniProt O14757).
T3 sequence (O14757 1-476): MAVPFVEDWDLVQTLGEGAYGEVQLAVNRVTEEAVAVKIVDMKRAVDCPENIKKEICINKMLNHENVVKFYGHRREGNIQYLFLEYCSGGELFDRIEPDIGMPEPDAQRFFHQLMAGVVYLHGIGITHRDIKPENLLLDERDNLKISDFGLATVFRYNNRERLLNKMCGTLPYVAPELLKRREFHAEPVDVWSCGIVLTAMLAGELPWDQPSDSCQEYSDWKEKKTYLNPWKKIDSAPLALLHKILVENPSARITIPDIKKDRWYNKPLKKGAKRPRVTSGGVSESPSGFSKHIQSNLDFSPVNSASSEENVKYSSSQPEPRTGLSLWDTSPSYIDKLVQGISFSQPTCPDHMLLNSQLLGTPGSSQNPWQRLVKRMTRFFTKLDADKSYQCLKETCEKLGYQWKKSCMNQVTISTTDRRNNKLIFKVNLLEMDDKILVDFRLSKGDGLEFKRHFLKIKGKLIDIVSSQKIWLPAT
The conditions noted are these: read-out: %Inh CHEK1.

The target in a further experiment is T4, AURKC (Homo sapiens, UniProt Q9UQB9).
T4 sequence (Q9UQB9 1-309): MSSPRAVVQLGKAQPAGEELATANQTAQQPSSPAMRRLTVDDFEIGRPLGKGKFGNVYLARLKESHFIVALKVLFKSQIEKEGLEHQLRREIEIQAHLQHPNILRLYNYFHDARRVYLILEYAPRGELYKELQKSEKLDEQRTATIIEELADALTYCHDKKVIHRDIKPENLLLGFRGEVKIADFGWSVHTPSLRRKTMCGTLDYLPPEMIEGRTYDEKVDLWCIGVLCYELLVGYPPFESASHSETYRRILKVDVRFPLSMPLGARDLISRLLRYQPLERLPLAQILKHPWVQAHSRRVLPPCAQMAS
The settings on record: read-out: %Inh AURKC.

A further experiment has as its target AURKB (Homo sapiens, UniProt Q96GD4). The conditions noted are these: read-out: %Inh AURKB.
The target of the next experiment is CDC2L5 (Homo sapiens, UniProt Q14004). The settings on record: read-out: %Inh CDC2L5.
Chain of CDC2L5 (Q14004 whole entry): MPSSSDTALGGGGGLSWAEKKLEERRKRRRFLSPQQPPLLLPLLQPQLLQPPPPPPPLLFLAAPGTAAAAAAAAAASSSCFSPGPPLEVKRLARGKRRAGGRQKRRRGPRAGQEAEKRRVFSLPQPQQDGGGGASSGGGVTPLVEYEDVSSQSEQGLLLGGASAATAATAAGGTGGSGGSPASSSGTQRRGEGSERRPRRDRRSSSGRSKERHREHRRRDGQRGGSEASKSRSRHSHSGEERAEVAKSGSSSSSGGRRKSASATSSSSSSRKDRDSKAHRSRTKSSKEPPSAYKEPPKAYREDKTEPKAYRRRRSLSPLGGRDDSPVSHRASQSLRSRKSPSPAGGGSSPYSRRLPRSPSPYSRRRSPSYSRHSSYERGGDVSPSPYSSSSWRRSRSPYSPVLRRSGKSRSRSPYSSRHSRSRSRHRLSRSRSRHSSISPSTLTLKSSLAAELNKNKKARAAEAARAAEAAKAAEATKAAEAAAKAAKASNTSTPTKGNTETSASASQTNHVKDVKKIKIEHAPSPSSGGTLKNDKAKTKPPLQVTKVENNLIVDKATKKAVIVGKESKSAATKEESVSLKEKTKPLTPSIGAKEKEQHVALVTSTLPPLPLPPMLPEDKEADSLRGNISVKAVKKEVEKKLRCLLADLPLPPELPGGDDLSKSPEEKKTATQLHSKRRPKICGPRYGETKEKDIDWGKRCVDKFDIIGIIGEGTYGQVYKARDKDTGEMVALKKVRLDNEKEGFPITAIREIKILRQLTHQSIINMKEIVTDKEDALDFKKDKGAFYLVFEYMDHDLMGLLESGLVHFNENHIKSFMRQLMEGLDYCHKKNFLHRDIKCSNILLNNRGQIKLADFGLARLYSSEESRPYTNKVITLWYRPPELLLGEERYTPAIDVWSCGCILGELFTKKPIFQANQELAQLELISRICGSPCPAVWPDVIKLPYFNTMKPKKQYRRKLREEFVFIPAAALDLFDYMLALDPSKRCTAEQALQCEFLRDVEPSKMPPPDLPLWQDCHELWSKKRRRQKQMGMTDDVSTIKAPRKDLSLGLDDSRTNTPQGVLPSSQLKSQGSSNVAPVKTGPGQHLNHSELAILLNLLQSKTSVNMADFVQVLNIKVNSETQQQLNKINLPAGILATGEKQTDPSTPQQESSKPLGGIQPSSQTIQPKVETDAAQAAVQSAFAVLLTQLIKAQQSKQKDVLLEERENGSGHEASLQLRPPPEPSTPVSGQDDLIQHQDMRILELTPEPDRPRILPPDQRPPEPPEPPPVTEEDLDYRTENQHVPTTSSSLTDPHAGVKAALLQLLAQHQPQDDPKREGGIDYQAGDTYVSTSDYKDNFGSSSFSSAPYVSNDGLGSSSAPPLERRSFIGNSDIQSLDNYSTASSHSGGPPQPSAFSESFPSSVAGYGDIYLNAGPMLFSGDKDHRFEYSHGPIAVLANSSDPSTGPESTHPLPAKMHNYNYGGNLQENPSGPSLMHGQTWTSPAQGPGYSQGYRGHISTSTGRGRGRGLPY
In the next experiment the target is CLK3 (Homo sapiens, UniProt P49761). The settings on record: read-out: %Inh CLK3.
Chain of CLK3 (P49761 whole entry): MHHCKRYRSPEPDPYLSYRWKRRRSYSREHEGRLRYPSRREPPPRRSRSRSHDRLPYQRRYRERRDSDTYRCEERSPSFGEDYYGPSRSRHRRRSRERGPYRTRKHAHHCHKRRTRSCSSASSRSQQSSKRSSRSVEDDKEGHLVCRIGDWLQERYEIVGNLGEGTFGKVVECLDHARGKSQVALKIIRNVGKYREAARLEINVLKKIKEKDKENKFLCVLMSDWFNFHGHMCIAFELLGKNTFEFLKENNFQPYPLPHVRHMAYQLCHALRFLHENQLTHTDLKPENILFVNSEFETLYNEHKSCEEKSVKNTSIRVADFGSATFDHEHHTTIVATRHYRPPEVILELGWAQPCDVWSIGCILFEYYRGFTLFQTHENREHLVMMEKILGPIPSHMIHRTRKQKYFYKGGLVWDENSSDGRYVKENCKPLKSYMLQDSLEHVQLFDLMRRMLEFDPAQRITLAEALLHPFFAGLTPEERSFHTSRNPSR

Chain of AURKB (Q96GD4 whole entry): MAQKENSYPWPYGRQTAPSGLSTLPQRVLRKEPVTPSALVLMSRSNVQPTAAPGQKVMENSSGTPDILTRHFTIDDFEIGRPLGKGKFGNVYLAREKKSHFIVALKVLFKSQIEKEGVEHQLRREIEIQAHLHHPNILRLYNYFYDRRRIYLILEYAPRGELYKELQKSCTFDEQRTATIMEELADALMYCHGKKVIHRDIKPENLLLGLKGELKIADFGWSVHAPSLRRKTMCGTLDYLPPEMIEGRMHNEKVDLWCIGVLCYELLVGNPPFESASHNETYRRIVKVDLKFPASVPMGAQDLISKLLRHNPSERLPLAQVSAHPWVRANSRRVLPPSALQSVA
Chain of GSK3B (P49841 whole entry): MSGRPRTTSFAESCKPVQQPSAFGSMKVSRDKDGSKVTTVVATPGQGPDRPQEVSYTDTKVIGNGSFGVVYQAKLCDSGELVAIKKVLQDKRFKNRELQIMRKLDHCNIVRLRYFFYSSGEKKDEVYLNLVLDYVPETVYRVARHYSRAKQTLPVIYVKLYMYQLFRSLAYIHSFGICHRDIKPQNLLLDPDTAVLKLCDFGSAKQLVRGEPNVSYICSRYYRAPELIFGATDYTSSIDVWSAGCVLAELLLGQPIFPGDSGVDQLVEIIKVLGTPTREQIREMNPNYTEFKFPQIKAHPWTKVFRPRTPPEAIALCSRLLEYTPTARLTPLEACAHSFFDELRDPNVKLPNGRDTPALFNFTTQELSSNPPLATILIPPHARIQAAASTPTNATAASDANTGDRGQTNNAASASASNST

`COc1cccc(OC)c1C(=O)Nc1cccc(-c2nn3ccccc3c2-c2ccnc(Nc3cccc(F)c3)n2)c1` [UNC10225310A]: the inhibition at 1 µM on GSK3B was found to be 0%; at AKT3, 0%; at MAP3K2 it was 7%; at ERBB3, 0%; on AKT1, 4%; on DAPK3, 0%. The inhibition at 1 µM on CSNK1G2 was found to be 17%; on IRAK1 it was 0%; on ACVR1, 17%; at CHEK1, 13%; on AURKC, 70%; at AURKB it was 0%. For the same compound, the figures for the inhibition at 1 µM at CDC2L5 and at CLK3 were 1% and 0%, respectively.

As for `O=c1cc(N2CCOCC2)nc2n(Cc3cccc(Cl)c3Cl)c(C3CC3)nn12` [UNC10225469A], the inhibition at 1 µM came out at 0% on GSK3B; 0% on AKT3; 0% at MAP3K2; 9% on ERBB3; 12% at AKT1; 6% at DAPK3. For the same compound, the inhibition at 1 µM at CSNK1G2 came out at 5%; at IRAK1 it was 0%; at ACVR1, 0%; at CHEK1, 15%; on AURKC, 0%; at AURKB it was 4%. Further, the inhibition at 1 µM is 0% on CDC2L5 and 14% on CLK3.

On to `Cn1cc(-c2cnc(N)c3c(-c4ccc5c(c4)CCN5C(=O)Cc4ccccc4)csc23)cn1` [UNC10225012A], for which the inhibition at 1 µM at GSK3B worked out at 0%; on AKT3, 8%; at MAP3K2, 75%; at ERBB3, 4%; at AKT1 it was 14%; on DAPK3, 7%. Besides, the inhibition at 1 µM at CSNK1G2 is 7%; on IRAK1 it was 0%; at ACVR1, 7%; at CHEK1, 9%; at AURKC, 92.2%; on AURKB it was 97.8%. The inhibition at 1 µM at CDC2L5 and at CLK3 was 0% in each case.

Regarding `CS(=O)(=O)Cc1ccc(Nc2nccc(-c3c(-c4cccc(NC(=O)C5CCCCC5)c4)nn4ncccc34)n2)cc1` [UNC10225159A], the inhibition at 1 µM at GSK3B was 20%; at AKT3, 0%; at MAP3K2, 15%; on ERBB3 it was 22%; at AKT1, 23%; on DAPK3 it was 0%. Moreover, the inhibition at 1 µM at CSNK1G2 came to 5%; on IRAK1, 24%; on ACVR1, 18%; on CHEK1, 12%; on AURKC, 49%; on AURKB, 15%. The figures for the inhibition at 1 µM at CDC2L5 and on CLK3 were 30% and 24%, respectively.

As for `Cc1ccc(NC(=O)Nc2cccc(C(F)(F)F)c2)cc1` [UNC10225187A], the inhibition at 1 µM on GSK3B was 0%; at AKT3, 0%; at MAP3K2, 0%; at ERBB3 it was 17%; on AKT1, 12%; at DAPK3, 24%. In addition, the inhibition at 1 µM at CSNK1G2 stood at 1%; at IRAK1, 0%; on ACVR1 it was 10%; on CHEK1, 5%; on AURKC, 19%; at AURKB, 0%. Also, the inhibition at 1 µM on CDC2L5 and at CLK3 was 0% in each case.

These data come from paper PMC5540273, “Progress towards a public chemogenomic set for protein kinases and a call for contributions” (PLoS ONE, 2017).
